Measured values as given in patent publication US20100311714A1, “1H-IMIDAZO[4,5-c]QUINOLINONE COMPOUNDS” (priority 2009, published 2010).
In brackets after ≈: the same amount, converted by molar mass. Like-named read-outs stand apart in the source and are kept apart here.

What was measured:
[1] = High-throughput equilibrium solubility at pH 6.8; assay type: physicochemical; settings: pH 6.8, aqueous buffer, thermodynamic from solid; read-out: HT-Eq Sol/pH 6.8
Procedure, shortened: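 Solubility was measured at pH 6.8 following the cited Zhou et al. (2007) procedure.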

[2] = Parallel Artificial Membrane Permeability Assay (PAMPA) at pH 6.8; assay type: physicochemical
Source text: The physicochemical properties of relevance for the absorption of the compound, such as the solubility and the membrane permeability, especially at a pH close to neutral pH can be measured using the procedure as described by L. ZHOU et al. in JOURNAL OF PHARMACEUTICAL SCIENCES, VOL. 96, NO. 11, p. 3052-3071 (2007) for the solubility at pH 6.8 and the procedure as described by F. Wohnsland and B. Faller in Journal of Medicinal Chemistry Vol 44, p. 923-930 (2001) for the Parallel Artificial Membrane Permeability Assay (PAMPA) at pH 6.8.
The following permeability log Pe was measured for compound of formula (I) as exemplified below: […]

PI3K beta = molecular target: T1, PI3K beta (Homo sapiens, UniProt P42338); assay: PI3K beta kinase assay (Kinase-Glo luminescence); assay type: biochemical
T1 construct: for the full-length p110-b subunit are generated and fused by overlapping PCR; His tag (C); made in house; host or cells: baculovirus BV949; Tn5 (Trichoplusia ni) or TiniPro insect cells
Procedure, shortened: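 PI3Kβ construct BV949 (p85 iSH2–p110β full-length, C-His), 25 nM, reacted with 1 μM ATP and 10 μg/mL phosphatidylinositol in Tris pH 7.5, MgCl2, NaCl, CHAPS, DTT buffer, 60 min at room temperature. Remaining ATP by Kinase-Glo luminescence; IC50 from 4-parameter logistic fit of 8 concentrations.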

mTOR = molecular target: T2, mTOR (Homo sapiens, UniProt P42345); assay: Biochemical assay for m-TOR by TR-FRET
T2 construct: purchased Invitrogen Corporation (Carlsbad/Calif., USA) PV4753
Procedure, shortened: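 mTOR (0.5 nM) phosphorylates GFP-4EBP1 (400 nM) with 8 μM ATP at rt in 50 mM HEPES pH 7.5, 10 mM MnCl2, 50 mM NaCl, 1 mM EGTA, 1 mM DTT; compounds 0.003–10 μM final. EDTA stop with Tb-anti-p4EBP1[pT46] antibody (0.5 nM); TR-FRET read after 15 min against no-enzyme and vehicle controls.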

T1 sequence (P42338 with tags, fused parts or gaps limits assumed): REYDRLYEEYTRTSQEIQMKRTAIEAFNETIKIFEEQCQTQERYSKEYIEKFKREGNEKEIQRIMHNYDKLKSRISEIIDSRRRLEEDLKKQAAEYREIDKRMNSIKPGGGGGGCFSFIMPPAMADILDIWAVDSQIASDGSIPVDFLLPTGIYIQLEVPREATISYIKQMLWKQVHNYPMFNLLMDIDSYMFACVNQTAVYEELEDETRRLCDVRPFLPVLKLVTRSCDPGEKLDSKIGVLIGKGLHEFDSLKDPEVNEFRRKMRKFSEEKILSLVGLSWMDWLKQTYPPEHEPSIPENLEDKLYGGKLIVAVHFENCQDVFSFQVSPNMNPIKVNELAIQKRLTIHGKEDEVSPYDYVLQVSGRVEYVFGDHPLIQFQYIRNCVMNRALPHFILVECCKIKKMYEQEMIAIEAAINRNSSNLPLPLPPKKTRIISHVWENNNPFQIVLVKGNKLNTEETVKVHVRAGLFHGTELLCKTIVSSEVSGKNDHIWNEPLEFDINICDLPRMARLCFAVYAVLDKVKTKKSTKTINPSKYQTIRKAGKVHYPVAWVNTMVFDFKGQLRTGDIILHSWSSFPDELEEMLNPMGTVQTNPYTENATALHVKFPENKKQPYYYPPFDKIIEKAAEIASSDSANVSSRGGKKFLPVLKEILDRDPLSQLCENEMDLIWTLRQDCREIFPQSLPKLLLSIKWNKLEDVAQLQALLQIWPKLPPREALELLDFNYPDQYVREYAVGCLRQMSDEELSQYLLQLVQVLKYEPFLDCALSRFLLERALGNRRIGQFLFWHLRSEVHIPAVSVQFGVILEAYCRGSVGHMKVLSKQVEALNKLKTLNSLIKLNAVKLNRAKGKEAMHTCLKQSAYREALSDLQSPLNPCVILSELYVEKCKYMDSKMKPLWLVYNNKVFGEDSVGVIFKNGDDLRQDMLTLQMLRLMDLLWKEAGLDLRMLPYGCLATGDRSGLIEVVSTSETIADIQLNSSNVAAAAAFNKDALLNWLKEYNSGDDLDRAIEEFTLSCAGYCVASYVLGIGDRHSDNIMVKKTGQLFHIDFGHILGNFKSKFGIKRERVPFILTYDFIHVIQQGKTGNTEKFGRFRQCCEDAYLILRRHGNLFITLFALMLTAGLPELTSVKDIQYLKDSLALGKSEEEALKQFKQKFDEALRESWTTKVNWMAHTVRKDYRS
T2 sequence (P42345 1360-2549 limits assumed): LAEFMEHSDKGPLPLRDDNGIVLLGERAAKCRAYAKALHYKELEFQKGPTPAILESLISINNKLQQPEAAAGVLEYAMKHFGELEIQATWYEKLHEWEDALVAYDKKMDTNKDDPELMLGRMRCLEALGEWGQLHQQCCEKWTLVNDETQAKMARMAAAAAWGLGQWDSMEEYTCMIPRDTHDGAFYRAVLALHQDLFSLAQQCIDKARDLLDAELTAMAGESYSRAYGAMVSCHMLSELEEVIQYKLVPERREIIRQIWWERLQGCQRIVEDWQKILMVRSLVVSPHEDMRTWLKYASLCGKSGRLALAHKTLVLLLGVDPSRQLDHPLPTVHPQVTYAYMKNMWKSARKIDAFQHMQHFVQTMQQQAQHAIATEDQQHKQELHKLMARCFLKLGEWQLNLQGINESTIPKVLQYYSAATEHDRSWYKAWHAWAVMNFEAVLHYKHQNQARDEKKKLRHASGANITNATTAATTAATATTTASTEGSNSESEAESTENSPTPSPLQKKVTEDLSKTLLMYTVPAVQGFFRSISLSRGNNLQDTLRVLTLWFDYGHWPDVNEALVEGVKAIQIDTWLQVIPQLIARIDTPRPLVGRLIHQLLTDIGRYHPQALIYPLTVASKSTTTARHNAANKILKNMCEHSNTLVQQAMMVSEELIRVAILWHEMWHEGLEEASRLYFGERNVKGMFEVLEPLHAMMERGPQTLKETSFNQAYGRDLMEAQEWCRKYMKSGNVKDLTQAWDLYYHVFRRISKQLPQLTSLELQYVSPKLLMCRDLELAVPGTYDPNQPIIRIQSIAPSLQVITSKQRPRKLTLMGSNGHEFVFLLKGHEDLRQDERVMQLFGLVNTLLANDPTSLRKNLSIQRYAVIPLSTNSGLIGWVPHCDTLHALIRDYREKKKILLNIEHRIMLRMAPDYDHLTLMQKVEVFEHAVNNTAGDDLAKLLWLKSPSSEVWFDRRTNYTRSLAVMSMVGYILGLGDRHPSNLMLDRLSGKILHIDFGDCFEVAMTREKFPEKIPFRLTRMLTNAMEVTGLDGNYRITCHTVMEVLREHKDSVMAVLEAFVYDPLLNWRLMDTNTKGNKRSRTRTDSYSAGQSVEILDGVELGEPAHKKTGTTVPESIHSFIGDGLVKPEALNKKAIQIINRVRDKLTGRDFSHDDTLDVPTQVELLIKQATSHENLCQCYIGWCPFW

Row | SMILES | solubility thermodynamic [1] | HT-Perm logPe pH6.8 [2] | IC50 (PI3K beta; read-out: EPK_PI3Kbeta/IC50) | IC50 (mTOR; read-out: EPK_mTOR/IC50) | HT-perm/logPe pH6.8 [2] | IC50 (PI3K beta; read-out: PI3Kbeta/IC50) | IC50 (mTOR; read-out: mTOR/IC50)
1 | COC1CCN(c2ccc(-n3c(=O)n(C)c4cnc5ccc(-c6cncc(C(C)(C)O)c6)cc5c43)c(C)n2)C1 (stereo not drawn) [Example 28.1, 8-[5-(1-Hydroxy-1-methyl-ethyl)-pyridin-3-yl]-1-[6-(3-methoxy-pyrrolidin-1-yl)-2-methyl-pyridin-3-yl]-3-methyl-1,3-dihydro-imidazo[4,5-c]quinolin-2-one] | 427 µg/mL (≈ 814 µM) | −5.1 | 48 nM | 22 nM | – | – | –
2 | Cc1nc(C(C)(C)O)ccc1-n1c(=O)n(C)c2cnc3ccc(-c4cnc(N)c(C(F)(F)F)c4)cc3c21 [Example 31.5, 8-(6-Amino-5-trifluoromethyl-pyridin-3-yl)-1-[6-(1-hydroxy-1-methyl-ethyl)-2-methyl-pyridin-3-yl]-3-methyl-1,3-dihydro-imidazo[4,5-c]quinolin-2-one] | 3 µg/mL (≈ 5.9 µM) | −4.3 | 9 nM | 6 nM | – | – | –
3 | CCOc1cc(-c2ccc3ncc4c(c3c2)n(-c2ccc(N3CCCC3)nc2C)c(=O)n4C)cnc1COC [Example 25.2, 8-(5-Ethoxy-6-methoxymethyl-pyridin-3-yl)-3-methyl-1-(2-methyl-6-pyrrolidin-1-yl-pyridin-3-yl)-1,3-dihydro-imidazo[4,5-c]quinolin-2-one] | 187 µg/mL (≈ 356 µM) | −3.9 | 291 nM | 76 nM | – | – | –
4 | CNc1cc(-c2ccc3ncc4c(c3c2)n(-c2cccnc2C)c(=O)n4C)cnc1C [Example 2.32, 3-Methyl-8-(6-methyl-5-methylamino-pyridin-3-yl)-1-(2-methyl-pyridin-3-yl)-1,3-dihydro-imidazo[4,5-c]quinolin-2-one] | 127 µg/mL (≈ 309 µM) | −4.8 | 61 nM | 7 nM | – | – | –
5 | CCOc1ccc(-c2ccc3ncc4c(c3c2)n(-c2ccc(C(C)(C)O)nc2C)c(=O)n4C)cn1 [Example 31.4, 8-(6-Ethoxy-pyridin-3-yl)-1-[6-(1-hydroxy-1-methyl-ethyl)-2-methyl-pyridin-3-yl]-3-methyl-1,3-dihydro-imidazo[4,5-c]quinolin-2-one] | 5 µg/mL (≈ 10.6 µM) | −3.7 | 342 nM | 75 nM | – | – | –
6 | Cc1nc(F)ccc1-n1c(=O)n(C)c2cnc3ccc(-c4cnc5c(ccn5C)c4)cc3c21 [Example 7.2, 1-(6-Fluoro-2-methyl-pyridin-3-yl)-3-methyl-8-(1-methyl-1H-pyrrolo[2,3-b]pyridin-5-yl)-1,3-dihydro-imidazo[4,5-c]quinolin-2-one] | 3 µg/mL (≈ 6.84 µM) | – | – | – | −3.7 | 309 nM | 17 nM
7 | Cc1ncccc1-n1c(=O)n(C)c2cnc3ccc(-c4cncc(N)c4)cc3c21 [Example 2.25, 8-(5-Amino-pyridin-3-yl)-3-methyl-1-(2-methyl-pyridin-3-yl)-1,3-dihydro-imidazo[4,5-c]quinolin-2-one] | 228 µg/mL (≈ 596 µM) | −7.7 | 143 nM | 12 nM | – | – | –
8 | Cc1ncccc1-n1c(=O)n(C)c2cnc3ccc(-c4cncc(NC(C)C)c4)cc3c21 [Example 2.24, 8-(5-Isopropylamino-pyridin-3-yl)-3-methyl-1-(2-methyl-pyridin-3-yl)-1,3-dihydro-imidazo[4,5-c]quinolin-2-one] | 196 µg/mL (≈ 462 µM) | −4.5 | 40 nM | 29 nM | – | – | –
9 | Cc1ccncc1-n1c(=O)n(C)c2cnc3ccc(-c4ccc(CO)nc4)cc3c21 [Example 4.1, 8-(6-Hydroxymethyl-pyridin-3-yl)-3-methyl-1-(4-methyl-pyridin-3-yl)-1,3-dihydro-imidazo[4,5-c]quinolin-2-one] | 75 µg/mL (≈ 189 µM) | – | – | – | −6.1 | – | –
10 | CCOc1cc(-c2ccc3ncc4c(c3c2)n(-c2ccc(OCCOC)nc2C)c(=O)n4C)cnc1COC [Example 22.1, 8-(5-Ethoxy-6-methoxymethyl-pyridin-3-yl)-1-[6-(2-methoxy-ethoxy)-2-methyl-pyridin-3-yl]-3-methyl-1,3-dihydro-imidazo[4,5-c]quinolin-2-one] | 7 µg/mL (≈ 13.2 µM) | −3.8 | 429 nM | 98 nM | – | – | –
11 | CNc1ncc(-c2ccc3ncc4c(c3c2)n(-c2ccc(N3CC[C@H](O)C3)nc2C)c(=O)n4C)cn1 [Example 32.1, 1-[6-((S)-3-Hydroxy-pyrrolidin-1-yl)-2-methyl-pyridin-3-yl]-3-methyl-8-(2-methylamino-pyrimidin-5-yl)-1,3-dihydro-imidazo[4,5-c]quinolin-2-one] | 64 µg/mL (≈ 133 µM) | −5 | 103 nM | 4 nM | – | – | –
12 | Cc1nc(N2CCCC2)ccc1-n1c(=O)n(C)c2cnc3ccc(-c4cncc(C(C)(C)O)c4)cc3c21 [Example 25.3, 8-[5-(1-Hydroxy-1-methyl-ethyl)-pyridin-3-yl]-3-methyl-1-(2-methyl-6-pyrrolidin-1-yl-pyridin-3-yl)-1,3-dihydro-imidazo[4,5-c]quinolin-2-one] | 99 µg/mL (≈ 200 µM) | −4.5 | < 3 nM | 12 nM | – | – | –
13 | CNc1ncc(-c2ccc3ncc4c(c3c2)n(-c2ccc(N3CC(O)C3)nc2C)c(=O)n4C)cc1F [Example 29.3, 8-(5-Fluoro-6-methylamino-pyridin-3-yl)-1-[6-(3-hydroxy-azetidin-1-yl)-2-methyl-pyridin-3-yl]-3-methyl-1,3-dihydro-imidazo[4,5-c]quinolin-2-one] | 56 µg/mL (≈ 115 µM) | −5.1 | 301 nM | 8 nM | – | – | –
14 | COc1ccc(-c2ccc3ncc4c(c3c2)n(-c2cccnc2C)c(=O)n4C)cc1OC [Example 2.9, 8-(3,4-Dimethoxy-phenyl)-3-methyl-1-(2-methyl-pyridin-3-yl)-1,3-dihydro-imidazo[4,5-c]quinolin-2-one] | 12 µg/mL (≈ 28.1 µM) | – | – | – | −3.3 | 77 nM | 23 nM
15 | COc1ncccc1-n1c(=O)n(C)c2cnc3ccc(-c4cnc5[nH]ccc5c4)cc3c21 [Example 1.2, 1-(2-Methoxy-pyridin-3-yl)-3-methyl-8-(1H-pyrrolo[2,3-b]pyridin-5-yl)-1,3-dihydro-imidazo[4,5-c]quinolin-2-one] | 3 µg/mL (≈ 7.1 µM) | – | – | – | −4.5 | 115 nM | 4 nM
16 | Cc1cccnc1-n1c(=O)n(C)c2cnc3ccc(-c4ccc(N(C)C)nc4)cc3c21 [Example 3.11, 8-(6-Dimethylamino-pyridin-3-yl)-3-methyl-1-(3-methyl-pyridin-2-yl)-1,3-dihydro-imidazo[4,5-c]quinolin-2-one] | 39 µg/mL (≈ 95 µM) | – | – | – | −3.4 | – | –
17 | CCOc1ccc(-c2ccc3ncc4c(c3c2)n(-c2cnccc2C)c(=O)n4C)cn1 [Example 4.2, 8-(6-Ethoxy-pyridin-3-yl)-3-methyl-1-(4-methyl-pyridin-3-yl)-1,3-dihydro-imidazo[4,5-c]quinolin-2-one] | 50 µg/mL (≈ 122 µM) | – | – | – | −3.5 | – | –
18 | COc1ccc(-c2ccc3ncc4c(c3c2)n(-c2ncccc2C)c(=O)n4C)cc1OC [Example 3.10, 8-(3,4-Dimethoxy-phenyl)-3-methyl-1-(3-methyl-pyridin-2-yl)-1,3-dihydro-imidazo[4,5-c]quinolin-2-one] | 195 µg/mL (≈ 457 µM) | – | – | – | −3.8 | – | –
19 | CCOc1ncc(-c2ccc3ncc4c(c3c2)n(-c2ncccc2C)c(=O)n4C)cn1 [Example 3.1, 8-(2-Ethoxy-pyrimidin-5-yl)-3-methyl-1-(3-methyl-pyridin-2-yl)-1,3-dihydro-imidazo[4,5-c]quinolin-2-one] | 39 µg/mL (≈ 94.6 µM) | – | – | – | −3.8 | – | –
20 | CN(C)c1ccc(-c2ccc3ncc4c(c3c2)n(-c2cccnc2)c(=O)n4C)cn1 [Example 5.3, 8-(6-Dimethylamino-pyridin-3-yl)-3-methyl-1-pyridin-3-yl-1,3-dihydro-imidazo[4,5-c]quinolin-2-one] | 4 µg/mL (≈ 10.1 µM) | – | – | – | −3.9 | – | 253 nM
21 | CNc1ncc(-c2ccc3ncc4c(c3c2)n(-c2ncccc2C)c(=O)n4C)cn1 [Example 3.4, 3-Methyl-8-(2-methylamino-pyrimidin-5-yl)-1-(3-methyl-pyridin-2-yl)-1,3-dihydro-imidazo[4,5-c]quinolin-2-one] | 11 µg/mL (≈ 27.7 µM) | – | – | – | −4.7 | – | 607 nM
